Article PMC10065799, “High-throughput profiling of sequence recognition by tyrosine kinases and SH2 domains using bacterial peptide display” (eLife, 2023)
Each block holds one sequence with its values, some of them ahead of it.

Columns and labels:
Assay in all cases: pTyr-Var library bacterial peptide display kinase screen (enrichment scores)
EPHB1 kinase domain = type: biochemical, human; conditions: for Screen: sheet EPHB1, effect of the variant peptide relative to its reference peptide in the pTyr-Var library screen (enrichment scores); for Screen (variant relative to reference peptide, measured in the pTyr-Var library screen): sheet "EPHB1", variant seq vs reference seq, bacterial peptide display enrichment
c-Abl kinase domain = molecular target: T1, c-Abl kinase domain (Mus musculus, UniProt P00520); type: biochemical;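 further: log2 fold change in enrichment of variant over reference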
T1 sequence (P00520 242-493 limits assumed): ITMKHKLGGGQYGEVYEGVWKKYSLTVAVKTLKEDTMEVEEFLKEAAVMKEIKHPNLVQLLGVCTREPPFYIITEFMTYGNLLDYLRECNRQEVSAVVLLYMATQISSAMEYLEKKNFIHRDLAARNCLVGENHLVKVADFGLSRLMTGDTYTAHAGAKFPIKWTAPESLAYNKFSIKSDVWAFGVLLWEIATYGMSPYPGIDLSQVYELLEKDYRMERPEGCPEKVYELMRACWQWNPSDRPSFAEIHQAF

c-Src kinase domain = c-Src kinase domain (Homo sapiens, UniProt P12931); type: biochemical; conditions: sheet "Src";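 further: log2 fold change in enrichment of variant over reference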
Fer kinase domain = type: biochemical, mouse; conditions: sheet "Fer"
EPHB2 kinase domain = type: biochemical, human; conditions: sheet EPHB2
[1] = fig5-data2, sheet "Abl", Screen for the variant/reference peptide pair, pTyr-Var library
[2] = sheet "Abl", effect of variant peptide relative to its reference peptide in pTyr-Var library screen (enrichment)
[3] = variant peptide versus its reference peptide in the pTyr-Var library screen
[4] = effect of the variant peptide relative to its reference peptide in the pTyr-Var library screen
[5] = value of the variant peptide against its reference peptide in the pTyr-Var library screen with Fer
[6] = effect of variant peptide relative to its reference peptide in the pTyr-Var library screen (enrichment scores)
[7] = variant peptide relative to its reference peptide, pTyr-Var library screen enrichment
[8] = effect of the variant relative to its reference peptide in the pTyr-Var library screen

Sequence: PLDGEYVTLQI [TP53_Y327_F328V]
- Screen (c-Abl kinase domain; [2]): -0.6513
- Screen (c-Src kinase domain; [3]): -2.053

Sequence: TESALYGCTIL [MAP3K21_Y724_V728I]
- Screen (c-Src kinase domain; [4]): 0.3601
- Screen (Fer kinase domain; [5]): -0.01841

Sequence: NEKNIYGVPLM [BMPR2_Y247_R248G]
- Screen (EPHB2 kinase domain; [6]): 2.247
- Screen (c-Src kinase domain; [4]): 1.983
- Screen (Fer kinase domain; [5]): 2.844

Sequence: PLDVEYFTLQI [TP53_Y327_G325V]
- Screen (c-Abl kinase domain; [2]): -0.7642
- Screen (c-Src kinase domain; [3]): -0.5097

Sequence: NHFKRYNLCAE [PTEN_Y68_I67R_YF]
- Screen (c-Src kinase domain; [3]): -2.549

Sequence: LADKPYTFEFF [FXN_Y118_D122Y_YF]
- Screen (EPHB2 kinase domain; [6]): -0.8967
- Screen (c-Src kinase domain; [4]): -0.4395
- Screen (Fer kinase domain; [5]): -0.3661

Sequence: FFLGAYDRFLP [SLC22A5_Y486_V481F_YF]
- Screen (c-Abl kinase domain; [2]): -0.3891
- Screen (EPHB2 kinase domain; [6]): -0.4331
- Screen (c-Src kinase domain; [3]): -0.1466

Sequence: LESILYESSVV [TRPV4_Y91_T89I]
- Screen (c-Src kinase domain; [3]): -0.6958
- Screen (Fer kinase domain; [7]): -0.3592

Sequence: GADAIYDHVNE [UQCR10_Y44_I47V]
- Screen (EPHB2 kinase domain; [8]): 0.825
- Screen (c-Src kinase domain; [3]): -0.3881
- Screen (Fer kinase domain; [7]): 0.2964

Sequence: FIIFIYAMKKK [SLCO1B1_Y645_L643F_YF]
- Screen (c-Src kinase domain; [3]): 2.408

Sequence: TEALFYTDDPA [ADPRS_Y75_T79P_YF]
- Screen (c-Abl kinase domain; [1]): 1.901

Sequence: LERFIYNRQEF [HLA-DPB1_Y59_E62Q_YF]
- Screen (c-Src kinase domain; [4]): -1.248

Sequence: EAAFVYVISSA [WNT4_Y113_A114V]
- Screen (c-Abl kinase domain; [2]): 1.673
- Screen (c-Src kinase domain; [3]): -2.147

Sequence: NHFKIYNLFAE [PTEN_Y68_C71Y_YF]
- Screen (c-Src kinase domain; [3]): -1.146

Sequence: AEDKPYAELWT [MPI_Y46_M51T]
- Screen (c-Src kinase domain; [4]): -0.4439
- Screen (Fer kinase domain; [5]): -0.5845

Sequence: LWKWRYEELKE [CCDC102B_Y299_K298R]
- Screen (c-Abl kinase domain; [1]): 0.5114

Sequence: RQNNSYTCFTA [SLC20A2_Y386_R382Q_YF]
- Screen (EPHB2 kinase domain; [6]): -1.481
- Screen (c-Src kinase domain; [3]): -1.243

Sequence: FISLIYTNFEV [GSTP1_Y109_A114V_YF]
- Screen (c-Abl kinase domain; [1]): 1.388
- Screen (c-Src kinase domain; [4]): 0.2277
- Screen (Fer kinase domain; [5]): 1.457

Sequence: VPHECYAKVFD [ALB_Y394_D389V]
- Screen (c-Abl kinase domain; [1]): 0.9527

Sequence: ADDSFYTVRSA [ZAP70_Y493_A495V_YF]
- Screen (c-Abl kinase domain; [2]): -3.301
- Screen (c-Src kinase domain; [3]): 1.093

Sequence: AHARMYGVLPW [PLP1_Y207_D203H]
- Screen (EPHB2 kinase domain; [6]): -2.408
- Screen (c-Src kinase domain; [3]): -1.491

Sequence: GESLTYVSTTF [C1orf162_Y120_A121V]
- Screen (c-Src kinase domain; [4]): -2.006

Sequence: LFLALYTGLVR [PIGB_Y402_H407R]
- Screen (c-Src kinase domain; [3]): -0.3512

Sequence: PPDGEYFTLQI [TP53_Y327_L323P]
- Screen (c-Src kinase domain; [3]): 0.5031

The remaining lines, values ahead:

- Screen (EPHB1 kinase domain): -0.7762
Sequence: FEKFLYFLPAS [DYNC2H1_Y346_H341Y_YF]

- Screen (c-Abl kinase domain; [1]): -0.568
Sequence: FLAVGYHMPHI [IDS_Y225_K227M]

- Screen (c-Abl kinase domain; [1]): 0.8954
Sequence: PVFEVYPLLNC [GATA1_Y78_Q76E]

- Screen (c-Abl kinase domain; [1]): 1.325
Sequence: QQIFTYDSGIH [JUP_Y22_T19I_YF]

- Screen (c-Abl kinase domain; [1]): 0.544
Sequence: RLLVVYTWTQR [HBB_Y36_P37T]

- Screen (c-Abl kinase domain; [1]): 0.2762
Sequence: CENCHYPILPL [LCK_Y25_V28L]

- Screen (c-Abl kinase domain; [2]): 3.304
Sequence: KAWTIYHPEDS [ZBP1_Y165_R166H]

- Screen (c-Abl kinase domain; [1]): 1.393
Sequence: GMKIVYVFVKK [DNAI2_Y5_E2K_YF]

- Screen (EPHB2 kinase domain; [6]): -0.8191
- Screen (Fer kinase domain; [7]): -0.9023
Sequence: LRSRVYEVPVE [SLC26A3_Y756_N753S]

- Screen (EPHB2 kinase domain; [8]): -1.317
Sequence: IGMLIYFARKA [VCAM1_Y718_I716L]

- Screen (c-Abl kinase domain; [1]): 0.9485
Sequence: AKKMKYFEGVS [PRKDC_Y682_I680M]

- Screen (c-Abl kinase domain; [2]): -1.969
Sequence: KLSHLYQDHMQ [WNT5A_Y86_C83S]

- Screen (EPHB1 kinase domain): 1.698
Sequence: SSWPDYVRPLP [HSPB1_Y54_G53D]

- Screen (variant relative to reference peptide, measured in the pTyr-Var library screen) (EPHB1 kinase domain): -0.4743
Sequence: HVKHNYECLVF [XRCC5_Y416_I412V_YF]

- Screen (variant relative to reference peptide, measured in the pTyr-Var library screen) (EPHB1 kinase domain): -2.109
Sequence: GESKDYALHAG [SVIL_Y185_V189A]

- Screen (c-Abl kinase domain; [1]): 2.749
- Screen (Fer kinase domain; [5]): 1.939
Sequence: FDNPIYQKTTE [LDLR_Y828_V827I]

- Screen (c-Abl kinase domain; [2]): 1.141
Sequence: SVTCTYPPALN [TP53_Y126_S127P]

- Screen (c-Abl kinase domain; [1]): -1.349
Sequence: NNRVFYGNSDC [RS1_Y177_R182C]

- Screen (c-Abl kinase domain; [1]): -0.4723
Sequence: VRHRHYKHTHE [CTCF_Y343_R342H]

- Screen (c-Abl kinase domain; [1]): 0.4399
Sequence: VGAKTYKMSMA [CPS1_Y309_A304V]

- Screen (c-Abl kinase domain; [2]): 2.315
Sequence: TVLEPYTDPFF [ZC3H18_Y367_A368T_YF]

- Screen (c-Abl kinase domain; [1]): -0.6074
Sequence: PQIVNYSPDCI [LDHB_Y128_K127N]

- Screen (c-Abl kinase domain; [1]): -1.096
Sequence: PIPIKYKAMKK [MYD88_Y257_L252P]

- Screen (Fer kinase domain; [5]): 2.885
Sequence: EACPSYSHVVL [CHST6_Y168_R166P]

- Screen (EPHB2 kinase domain; [6]): 0.9502
Sequence: WKEREYEVVRD [CPS1_Y634_I632R]

- Screen (EPHB2 kinase domain; [6]): -1.099
Sequence: LIGRGYDDPEV [HSPA9_Y128_R127G]

- Screen (c-Abl kinase domain; [1]): -1.545
Sequence: LSCLAYSGKDA [FXN_Y205_S202C]
